Reference: US8088815B2, “Spiroindolinone pyrrolidines” (Hoffman-La Roche Inc., priority 2009, dated 2012)

Molecular target: interaction between p53 and MDM2 proteins (Homo sapiens, UniProt Q00987)
Assay: HTRF assay of inhibition of the p53-MDM2 interaction (GST-MDM2 / biotinylated p53 peptide)
Assay type: binding
Settings: recombinant GST-tagged MDM2 and biotinylated p53 peptide, bsa:0.02%

Sequence of interaction between p53 and MDM2 proteins (Q00987 whole entry): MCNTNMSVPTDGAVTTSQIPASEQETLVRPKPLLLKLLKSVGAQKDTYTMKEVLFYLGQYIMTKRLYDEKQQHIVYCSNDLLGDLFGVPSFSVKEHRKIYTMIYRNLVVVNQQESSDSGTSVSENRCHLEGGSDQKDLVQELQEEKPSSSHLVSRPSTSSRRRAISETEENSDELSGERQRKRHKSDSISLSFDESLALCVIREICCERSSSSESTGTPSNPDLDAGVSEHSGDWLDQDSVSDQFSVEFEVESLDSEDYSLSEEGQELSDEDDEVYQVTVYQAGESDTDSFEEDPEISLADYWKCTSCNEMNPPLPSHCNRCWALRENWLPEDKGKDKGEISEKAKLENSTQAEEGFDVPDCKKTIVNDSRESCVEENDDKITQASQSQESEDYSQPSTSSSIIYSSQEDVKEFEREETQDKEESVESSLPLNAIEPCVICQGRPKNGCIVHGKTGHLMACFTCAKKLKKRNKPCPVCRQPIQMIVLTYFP

IC50 [nM] | SMILES
17 | Cn1ccc(NC(=O)[C@@H]2N[C@@H](CC(C)(C)C)[C@@]3(C(=O)Nc4cc(Cl)ccc43)[C@H]2c2cccc(Cl)c2F)cc1=O (racemic) [Example 27, rac-(2′S,3′R,4′S,5′R)-6-chloro-4′-(3-chloro-2-fluoro-phenyl)-2′-(2,2-dimethyl-propyl)-2-oxo-1,2-dihydro-spiro[indole-3,3′-pyrrolidine]-5′-carboxylic acid (1-methyl-2-oxo-1,2-dihydro-pyridin-4-yl)-amide]
29 | COC(=O)c1ccc(NC(=O)[C@@H]2N[C@@H](CC(C)(C)C)[C@@]3(C(=O)Nc4cc(Cl)ccc43)[C@H]2c2ccc(F)c(Cl)c2)c(OC)c1 (racemic) [Example 126, rac-4-{[(2′S,3′R,4′R,5′R)-6-chloro-4′-(3-chloro-4-fluoro-phenyl)-2′-(2,2-dimethyl-propyl)-2-oxo-1,2-dihydro-spiro[indole-3,3′-pyrrolidine]-5′-carbonyl]amino}-3-methoxy-benzoic acid methyl ester]
23 | COc1cc(C#N)ccc1NC(=O)[C@@H]1N[C@@H](CC(C)(C)C)[C@@]2(C(=O)Nc3cc(Cl)ccc32)[C@H]1c1cccc(Cl)c1F (racemic) [Example 58, rac-(2′S,3′R,4′S,5′R)-6-chloro-4′-(3-chloro-2-fluoro-phenyl)-2′-(2,2-dimethyl-propyl)-2-oxo-1,2-dihydro-spiro[indole-3,3′-pyrrolidine]-5′-carboxylic acid (4-cyano-2-methoxy-phenyl)-amide]
21 | COc1cc(C#N)ccc1NC(=O)[C@@H]1N[C@@H](CC(C)(C)C)[C@@]2(C(=O)Nc3c2ccc(Cl)c3F)[C@H]1c1cccc(Cl)c1F (racemic) [Example 177, rac-(2′S,3′R,4′S,5′R)-6-chloro-4′-(3-chloro-2-fluoro-phenyl)-2′-(2,2-dimethyl-propyl)-7-fluoro-2-oxo-1,2-dihydro-spiro[indole-3,3′-pyrrolidine]-5′-carboxylic acid (4-cyano-2-methoxy-phenyl)-amide]
13 | CC(C)(C)C[C@@H]1N[C@@H](C(=O)Nc2ccc(C#N)cc2)[C@H](c2cc(F)cc(Cl)c2)[C@]12C(=O)Nc1cc(Cl)ccc12 (racemic) [Example 88, rac-(2′S,3′R,4′R,5′R)-6-chloro-4′-(3-chloro-5-fluoro-phenyl)-2′-(2,2-dimethyl-propyl)-2-oxo-1,2-dihydro-spiro[indole-3,3′-pyrrolidine]-5′-carboxylic acid (4-cyano-phenyl)-amide]
6 | CC(C)(C)C[C@@H]1N[C@@H](C(=O)Nc2ccc(C(N)=O)c(Cl)c2)[C@H](c2cccc(Cl)c2F)[C@]12C(=O)Nc1cc(Cl)ccc12 [Example 26, chiral (2′S,3′R,4′S,5′R)-6-chloro-4′-(3-chloro-2-fluoro-phenyl)-2′-(2,2-dimethyl-propyl)-2-oxo-1,2-dihydro-spiro[indole-3,3′-pyrrolidine]-5′-carboxylic acid (4-carbamoyl-3-chloro-phenyl)-amide]
15 | COc1cc(C(N)=O)ccc1NC(=O)[C@@H]1N[C@@H](CC(C)(C)C)[C@@]2(C(=O)Nc3c2ccc(Cl)c3F)[C@H]1c1cccc(Cl)c1F (racemic) [Example 178, rac-(2′S,3′R,4′S,5′R)-6-chloro-4′-(3-chloro-2-fluoro-phenyl)-2′-(2,2-dimethyl-propyl)-7-fluoro-2-oxo-1,2-dihydro-spiro[indole-3,3′-pyrrolidine]-5′-carboxylic acid (4-carbamoyl-2-methoxy-phenyl)-amide]
11 | COc1cc(OCCSC)ccc1NC(=O)[C@@H]1N[C@@H](CC(C)(C)C)[C@@]2(C(=O)Nc3cc(Cl)ccc32)[C@H]1c1cccc(Cl)c1F [Example 169, chiral (2′S,3′R,4′S,5′R)-6-chloro-4′-(3-chloro-2-fluoro-phenyl)-2′-(2,2-dimethyl-propyl)-2-oxo-1,2-dihydro-spiro[indole-3,3′-pyrrolidine]-5′-carboxylic acid [2-methoxy-4-(2-methylsulfanyl-ethoxy)-phenyl]-amide]
51 | CC(C)(C)C[C@@H]1N[C@@H](C(=O)Nc2nc(C(=O)O)cs2)[C@H](c2cccc(Cl)c2F)[C@]12C(=O)Nc1cc(Cl)ccc12 (racemic) [Example 197, rac-2-{[(2′S,3′R,4′S,5′R)-6-chloro-4′-(3-chloro-2-fluoro-phenyl)-2′-(2,2-dimethyl-propyl)-2-oxo-1,2-dihydro-spiro[indole-3,3′-pyrrolidine]-5′-carbonyl]amino}-thiazole-4-carboxylic acid]
10 | CCOc1cc(C(=O)OC)ccc1NC(=O)[C@@H]1N[C@@H](CC(C)(C)C)[C@@]2(C(=O)Nc3cc(Cl)ccc32)[C@H]1c1cccc(Cl)c1F (racemic) [Example 129, rac-4-{[(2′S,3′R,4′S,5′R)-6-chloro-4′-(3-chloro-2-fluoro-phenyl)-2′-(2,2-dimethyl-propyl)-2-oxo-1,2-dihydro-spiro[indole-3,3′-pyrrolidine]-5′-carbonyl]-amino}-3-ethoxy-benzoic acid methyl ester]
22 | COC(=O)c1ccc(NC(=O)[C@@H]2N[C@@H](CC(C)(C)C)[C@@]3(C(=O)Nc4cc(Cl)ccc43)[C@H]2c2cccc(Cl)c2F)s1 (racemic) [Example 14, rac-5-{[(2′S,3′R,4′S,5′R)-6-chloro-4′-(3-chloro-2-fluoro-phenyl)-2′-(2,2-dimethyl-propyl)-2-oxo-1,2-dihydro-spiro[indole-3,3′-pyrrolidine]-5′-carbonyl]amino}-thiophene-2-carboxylic acid methyl ester]
15 | CC(C)(C)C[C@@H]1N[C@@H](C(=O)Nc2ccc(C#N)s2)[C@H](c2cccc(Cl)c2F)[C@]12C(=O)Nc1cc(Cl)ccc12 (racemic) [Example 187, rac-(2′S,3′R,4′S,5′R)-6-chloro-4′-(3-chloro-2-fluoro-phenyl)-2′-(2,2-dimethyl-propyl)-2-oxo-1,2-dihydro-spiro[indole-3,3′-pyrrolidine]-5′-carboxylic acid (5-cyano-thiophen-2-yl)-amide]
11 | COc1cc(C(=O)O)c(F)cc1NC(=O)[C@@H]1N[C@@H](CC(C)(C)C)[C@@]2(C(=O)Nc3cc(Cl)ccc32)[C@H]1c1cccc(Cl)c1F (racemic) [Example 215, rac-4-{[(2′S,3′R,4′S,5′R)-6-chloro-4′-(3-chloro-2-fluoro-phenyl)-2′-(2,2-dimethyl-propyl)-2-oxo-1,2-dihydro-spiro[indole-3,3′-pyrrolidine]-5′-carbonyl]-amino}-2-fluoro-5-methoxy-benzoic acid]
9 | CC(C)(C)C[C@@H]1N[C@@H](C(=O)Nc2ccc(C(N)=O)cc2)[C@H](c2cccc(Cl)c2)[C@]12C(=O)Nc1cc(Cl)ccc12 (racemic) [Example 65A, rac-(2′S,3′R,4′R,5′R)-6-chloro-4′-(3-chloro-phenyl)-2′-(2,2-dimethyl-propyl)-2-oxo-1,2-dihydro-spiro[indole-3,3′-pyrrolidine]-5′-carboxylic acid (4-carbamoyl-phenyl)-amide]

SMILES | IC50 [nM]
CCCCOc1cc(C(=O)O)ccc1NC(=O)[C@@H]1N[C@@H](CC(C)(C)C)[C@@]2(C(=O)Nc3cc(Cl)ccc32)[C@H]1c1cccc(Cl)c1F (racemic) [Example 151, rac-3-butoxy-4-{[(2′S,3′R,4′S,5′R)-6-chloro-4′-(3-chloro-2-fluoro-phenyl)-2′-(2,2-dimethyl-propyl)-2-oxo-1,2-dihydro-spiro[indole-3,3′-pyrrolidine]-5′-carbonyl]amino}-benzoic acid] | 13
